Data taken from patent US8497240B2 (priority 2006, dated 2013).

Format: in vivo, NIH/Swiss mice
Settings: 30 nmol/kg
Description: In FIG. 3A, bars represent mean±sd, n=6-10. […] Gavage (1.5 g/kg) was given at t=0, Sample was taken at t=30 min. […] In FIG. 3B, points represent mean±sem, n=8-15.
Peptide was injected IP at t=−5 minutes into 4-hour fasted NIH/Swiss female mice. […] In FIG. 17 points represent mean+/−sem. […] Samples were taken at t=60, t=120 and t=180.
For `CC[C@H](C)[C@H](NC(=O)[C@H](CO)NC(=O)[C@H](Cc1ccc(O)cc1)NC(=O)[C@H](CC(=O)O)NC(=O)[C@H](CO)NC(=O)[C@@H](NC(=O)[C@H](Cc1ccccc1)NC(=O)[C@@H](NC(=O)CNC(=O)[C@H](CCC(=O)O)NC(=O)[C@H](C)NC(=O)[C@@H](N)Cc1ccc(O)cc1)[C@@H](C)O)[C@@H](C)CC)C(=O)N[C@@H](C)C(=O)N[C@@H](CCSC)C(=O)N[C@@H](CC(=O)O)C(=O)N[C@@H](CCCCN)C(=O)N[C@H](C(=O)N[C@@H](Cc1c[nH]cn1)C(=O)N[C@@H](CCC(N)=O)C(=O)N[C@@H](CCC(N)=O)C(=O)N[C@@H](CC(=O)O)C(=O)N[C@@H](Cc1ccccc1)C(=O)N[C@H](C(=O)N[C@@H](CC(N)=O)C(=O)N[C@@H](Cc1c[nH]c2ccccc12)C(=O)N[C@@H](CC(C)C)C(=O)N[C@@H](CC(C)C)C(=O)N[C@@H](C)C(=O)N[C@@H](CCC(N)=O)C(=O)N[C@@H](CCCCN)C(=O)N[C@H](C(=O)N[C@@H](CO)C(=O)N1CCC[C@H]1C(=O)N[C@@H](CCCNC(=N)N)C(=O)N1CCC[C@H]1C(=O)N1CCC[C@H]1C(=O)N[C@@H](CO)C(N)=O)[C@@H](C)O)C(C)C)[C@@H](C)CC` [0601GIP4328], the “OGTT/GL (%)” value was −2, 30%.
In the case of `CC[C@H](C)[C@H](NC(=O)[C@H](CO)NC(=O)[C@H](Cc1ccc(O)cc1)NC(=O)[C@H](CC(=O)O)NC(=O)[C@H](CO)NC(=O)[C@@H](NC(=O)[C@H](Cc1ccccc1)NC(=O)[C@@H](NC(=O)CNC(=O)[C@H](CCC(=O)O)NC(=O)[C@@H](C)NC(=O)[C@H](Cc1ccc(O)cc1)NC(=O)OCC(C)C)[C@@H](C)O)[C@@H](C)CC)C(=O)N[C@@H](C)C(=O)N[C@@H](CCSC)C(=O)N[C@@H](CC(=O)O)C(=O)N[C@@H](CCCCN)C(=O)N[C@H](C(=O)N[C@@H](Cc1c[nH]cn1)C(=O)N[C@@H](CCC(N)=O)C(=O)N[C@@H](CCC(N)=O)C(=O)N[C@@H](CC(=O)O)C(=O)N[C@@H](Cc1ccccc1)C(=O)N[C@H](C(=O)N[C@@H](CC(N)=O)C(=O)N[C@@H](Cc1c[nH]c2ccccc12)C(=O)N[C@@H](CC(C)C)C(=O)N[C@@H](CC(C)C)C(=O)N[C@@H](C)C(=O)N[C@@H](CCC(N)=O)C(=O)N[C@@H](CCCCN)C(=O)N1CCC[C@H]1C(=O)N[C@@H](CO)C(=O)N[C@@H](CO)C(=O)NCC(=O)N[C@@H](C)C(=O)N1CCC[C@H]1C(=O)N1CCC[C@H]1C(=O)N1CCC[C@H]1C(=O)N[C@@H](CO)C(N)=O)C(C)C)[C@@H](C)CC` [Compound 0601GIP4180], the “OGTT/GL (%)” value is reported as −11, 30%.
For `CC[C@H](C)[C@H](NC(=O)[C@H](CO)NC(=O)[C@H](Cc1ccc(O)cc1)NC(=O)[C@H](CC(=O)O)NC(=O)[C@H](CO)NC(=O)[C@@H](NC(=O)[C@H](Cc1ccccc1)NC(=O)[C@@H](NC(=O)CNC(=O)[C@H](CCC(=O)O)NC(=O)[C@H](C)NC(=O)[C@@H](N)Cc1ccc(O)cc1)[C@@H](C)O)[C@@H](C)CC)C(=O)N[C@@H](C)C(=O)N[C@@H](CCSC)C(=O)N[C@@H](CC(=O)O)C(=O)N[C@@H](CCCCN)C(=O)N[C@H](C(=O)N[C@@H](Cc1c[nH]cn1)C(=O)N[C@@H](CCC(N)=O)C(=O)N[C@@H](CCC(N)=O)C(=O)N[C@@H](CC(=O)O)C(=O)N[C@@H](Cc1ccccc1)C(=O)N[C@H](C(=O)N[C@@H](CC(N)=O)C(=O)N[C@@H](Cc1c[nH]c2ccccc12)C(=O)N[C@@H](CC(C)C)C(=O)N[C@@H](CC(C)C)C(=O)N[C@@H](C)C(=O)N[C@@H](CCC(N)=O)C(=O)N[C@@H](CCCCN)C(=O)N1CCC[C@H]1C(=O)N[C@@H](CCCCN)C(=O)N[C@@H](CCCCN)C(=O)N[C@H](C(=O)N[C@@H](CCCNC(=N)N)C(=O)N[C@@H](Cc1ccc(O)cc1)C(=O)N[C@@H](CO)C(N)=O)[C@@H](C)CC)C(C)C)[C@@H](C)CC` [0601GIP4327], the “OGTT/GL (%)” value was −7, 30%.

Same assay, conditions: 350 nmol/kg
With `CC[C@H](C)[C@H](NC(=O)[C@H](CO)NC(=O)[C@H](Cc1ccc(O)cc1)NC(=O)[C@H](CC(=O)O)NC(=O)[C@H](CO)NC(=O)[C@@H](NC(=O)[C@H](Cc1ccccc1)NC(=O)[C@@H](NC(=O)CNC(=O)[C@H](CCC(=O)O)NC(=O)[C@@H](C)NC(=O)[C@@H](N)Cc1ccc(O)cc1)[C@@H](C)O)[C@@H](C)CC)C(=O)N[C@@H](C)C(=O)N[C@@H](CCSC)C(=O)N[C@@H](CC(=O)O)C(=O)N[C@@H](CCCCN)C(=O)N[C@H](C(=O)N[C@@H](Cc1c[nH]cn1)C(=O)N[C@@H](CCC(N)=O)C(=O)N[C@@H](CCC(N)=O)C(=O)N[C@@H](CC(=O)O)C(=O)N[C@@H](Cc1ccccc1)C(=O)N[C@H](C(=O)N[C@@H](CC(N)=O)C(=O)N[C@@H](Cc1c[nH]c2ccccc12)C(=O)N[C@@H](CC(C)C)C(=O)N[C@@H](CC(C)C)C(=O)N[C@@H](C)C(=O)N[C@@H](CCC(N)=O)C(=O)N[C@@H](CCCCN)C(=O)N1CCC[C@H]1C(=O)N[C@@H](CO)C(=O)N[C@@H](CCCCN)C(=O)N[C@@H](CCC(=O)O)C(=O)N[C@H](C(=O)N[C@H](C(=O)N[C@@H](CO)C(N)=O)[C@@H](C)CC)[C@@H](C)CC)C(C)C)[C@@H](C)CC` [Compound 0601GIP4234] the “OGTT/GL (%)” value was −17%.
For `CC[C@H](C)[C@H](NC(=O)[C@H](CCCCN)NC(=O)[C@H](CC(=O)O)NC(=O)[C@H](CCSC)NC(=O)[C@@H](NC(=O)[C@@H](NC(=O)[C@H](CO)NC(=O)[C@H](Cc1ccc(O)cc1)NC(=O)[C@H](CC(=O)O)NC(=O)[C@H](CO)NC(=O)[C@@H](NC(=O)[C@H](Cc1ccccc1)NC(=O)[C@@H](NC(=O)CNC(=O)[C@H](CCC(=O)O)NC(=O)[C@@H](C)NC(=O)[C@@H](N)Cc1ccc(O)cc1)[C@@H](C)O)[C@@H](C)CC)[C@@H](C)CC)[C@@H](C)O)C(=O)N[C@@H](Cc1c[nH]cn1)C(=O)N[C@@H](CCC(N)=O)C(=O)N[C@@H](CCC(N)=O)C(=O)N[C@@H](CC(=O)O)C(=O)N[C@@H](Cc1ccccc1)C(=O)N[C@H](C(=O)N[C@@H](CC(N)=O)C(=O)N[C@@H](Cc1c[nH]c2ccccc12)C(=O)N[C@@H](CC(C)C)C(=O)N[C@@H](CC(C)C)C(=O)N[C@@H](C)C(=O)N[C@@H](CCC(N)=O)C(=O)N[C@@H](CCCCN)C(=O)N1CCC[C@H]1C(=O)N[C@@H](CO)C(=O)N[C@@H](CO)C(=O)NCC(=O)N[C@@H](C)C(=O)N1CCC[C@H]1C(=O)N1CCC[C@H]1C(=O)N1CCC[C@H]1C(=O)N[C@@H](CO)C(N)=O)C(C)C` [Compound 0601GIP4213], the “OGTT/GL (%)” value was −17%.
In the case of `CC[C@H](C)[C@H](NC(=O)[C@H](CO)NC(=O)[C@H](Cc1ccc(O)cc1)NC(=O)[C@H](CC(=O)O)NC(=O)[C@H](CO)NC(=O)[C@@H](NC(=O)[C@H](Cc1ccccc1)NC(=O)[C@@H](NC(=O)CNC(=O)[C@H](CCC(=O)O)NC(=O)[C@@H](C)NC(=O)[C@@H](N)Cc1ccc(O)cc1)[C@@H](C)O)[C@@H](C)CC)C(=O)N[C@@H](C)C(=O)N[C@@H](CCSC)C(=O)N[C@@H](CC(=O)O)C(=O)N[C@@H](CCCCN)C(=O)N[C@H](C(=O)N[C@@H](Cc1c[nH]cn1)C(=O)N[C@@H](CCC(N)=O)C(=O)N[C@@H](CCC(N)=O)C(=O)N[C@@H](CC(=O)O)C(=O)N[C@@H](Cc1ccccc1)C(=O)N[C@H](C(=O)N[C@@H](CC(N)=O)C(=O)N[C@@H](Cc1c[nH]c2ccccc12)C(=O)N[C@@H](CC(C)C)C(=O)N[C@@H](CC(C)C)C(=O)N[C@@H](C)C(=O)N[C@@H](CCC(N)=O)C(=O)N[C@@H](CCCCN)C(=O)N[C@H](C(=O)N[C@@H](CO)C(=O)N1CCC[C@H]1C(=O)N[C@@H](CCCNC(=N)N)C(=O)N1CCC[C@H]1C(=O)N1CCC[C@H]1C(=O)N[C@@H](CO)C(N)=O)[C@@H](C)O)C(C)C)[C@@H](C)CC` [Compound 0601GIP4236], the “OGTT/GL (%)” value is reported as −16%.
